Results from patent publication US11884709B2, “Peptides for the treatment of resorptive bone disease” (University of New Brunswick, priority 2015, dated 2024).
Entries after “also recorded” stand apart in the source; their conditions may differ. Where no end group is shown, it is not given here.

Key:
[1] = system: two ovarian cancer cell lines; conditions: cited from earlier work
[2] = in vivo; cited from earlier work
human osteoclasts = experiment: Osteoassay: bone resorption by osteoclasts on Corning osteoassay plate; assay type: cell-based; conditions: for resorptive activity on corning osteoassay surface: 150 μM (C5); for bone resorption by osteoclasts / osteoclast activity (percentage resorption): Corning osteoassay plate, 1 uM-150 uM, M-CSF and RANKL, day 12
Method: (§1) Osteoclasts were generated in vitro by the modified method of Cody et al., 2011, using fresh human bone marrow aspirates. Briefly, bone marrow mononuclear cells (BMC) separated on a density gradient medium in SepMate tubes were resuspended in growth media (α-MEM with 10% FBS) and cultured for 3 days in T75 flask with 35 ng/mL M-CSF at 37° C. in a 5% CO2 incubator. For osteoclast differentiation experiments, 10^5 cells/well of BM monocytes-macrophage precursors seeded in a 24 well plate was treated with human M-CSF and RANKL, and media replenished with fresh cytokines every third day for two weeks.
10^5 BMCs per well in 24 well Corning osteoassay plate were treated with human M-CSF (10 ng/mL) and 10 ng/mL of human RANKL. Undifferentiated condition includes cells treated with M-CSF only. The treatment wells had both M-CSF and RANKL followed by addition of TRPV6 peptide antagonists SOR-C13 and SOR-C27 at concentrations range 1 μM-150 μM tested in triplicate wells, vehicle or PBS buffer in which the peptides are dissolved and the standard anti-resorbing agent, Zoledronate were included for the experiment. Replenishment with fresh media containing M-CSF, RANKL and SOR peptides in respective wells was carried out every third day. On day 12, cells in osteoplates were removed by incubating with 10% bleach for 10 minutes; wells were washed with distilled water three times and air-dried for 3-5 hrs. Osteoassay plate was scanned using ChemiDoc MP and area of resorption pits in each well was quantified using ImageJ 1.48v Software.
Experiments were done in triplicates for each condition and data presented as mean±SD. All statistical analyses were done using GraphPad Prism 6, one way ANOVA and Dunnett's multiple comparison test was used to determine significance between groups and P<0.05 is considered statistically significant.
The effect of C-terminal Soricidin peptides on osteoclast activity and bone resorption was examined using 24-well corning assay plates that have a 3D osteo surface that mimics in vivo bone for in vitro bone cell assays. The inorganic bone biomaterial surface in each well is capable of supporting the functional properties of osteogenic cells. Only osteoclasts, specialized cells expressing bone-resorbing enzymes such as TRAP, cathepsin K and collagenase, can resorb such an artificial osteosurface. Resorption of the osteosurface is evident from the resorption pits/trails made by the osteoclasts, and the extent of resorption was quantified. Furthermore, the percentage activity of TRAP, one of the enzymes involved in bone resorption, was determined in tandem with the resorption assay (FIG. 7c). The anti-resorptive potential of selective TRPV6 antagonist peptides, SOR-C13 and SOR-C27 at various concentrations was observed (FIGS. 7 and 8) was observed.

[3] = system: osteoclast differentiation; experiment: Osteoclast differentiation from bone marrow mononuclear cells (M-CSF and RANKL); assay type: cell-based, human; conditions: 150 μM (C5)
Method: as §1
(§2) 10^5 BMCs per well in 24 well Corning osteoassay plate were treated with human M-CSF (10 ng/mL) and 10 ng/mL of human RANKL. […] Osteoassay plate was scanned using ChemiDoc MP and area of resorption pits in each well was quantified using ImageJ 1.48v Software.
(§3) The effect of C-terminal Soricidin peptides on osteoclast activity and bone resorption was examined using 24-well corning assay plates that have a 3D osteo surface that mimics in vivo bone for in vitro bone cell assays. […] Resorption of the osteosurface is evident from the resorption pits/trails made by the osteoclasts, and the extent of resorption was quantified. Furthermore, the percentage activity of TRAP, one of the enzymes involved in bone resorption, was determined in tandem with the resorption assay (FIG. 7c). […]

U266 cells = experiment: 48 hr peptide treatment, myeloma cell growth (U266); assay type: cell-based, human; conditions: 1 uM-500 uM
Method: C1=1 uM, C2=10 uM, C3=50 uM, C4=100 uM, C5=150 uM, C6=250 uM, C7=400 uM, C8=500 uM.
(§4) The expression of TRPV6 protein was also observed in human myeloma cells by immunohistochemistry on myeloma bone sections (FIG. 1C) and in myeloma cell lines by western blotting (FIG. 9). Moreover, the growth inhibitory potential of SOR-C13 and SOR-C27 was determined using human myeloma cell lines U266 and KMM-1 (FIGS. 10 and 11). There exists a reciprocal relationship between myeloma cells and osteoclasts in the bone marrow milieu where myeloma cells secrete many factors that promote osteoclast activity, and in turn osteoclasts induce myeloma cell growth and survival.

[4] = system: Tartrate-Resistant Acid Phosphatase (TRAP) in osteoclasts; experiment: TRAP enzyme activity in conditioned media of osteoassay wells; assay type: cell-based, human; conditions: relative to controls
Method: Osteoclasts were fixed and stained for tartrate-resistant acid phosphatase (TRAP) using the leukocyte acid phosphatase kit (Sigma-Aldrich) according to the manufacturer's protocol. Images were acquired in EVOS brightfield microscope. To visualize actin ring formation in osteoclasts, tetramethyl rhodamine-phalloidin (Life Technologies Inc.) staining was done for 1 hour. The cell nuclei were counterstained with 1 μg/ml Hoechst 33342 (Sigma-Aldrich) in phosphate buffered saline for 5 minute. Images were acquired in EVOS fluorescence microscope. TRAP enzyme activity was measured at 37° C. with a substrate buffer (125 mg/ml Naphthol AS-BI phosphoric acid in diazotized fast garnet base chemical solution, Sigma-Aldrich) at 560 nm.
as §2
as §3, with “quantified.” for “quantified. Furthermore, the percentage activity of TRAP, one of the enzymes involved in bone resorption, was determined in tandem with the resorption assay (FIG. 7c).”

KMM-1 cells = experiment: 48 hr peptide treatment, myeloma cell growth (KMM-1); assay type: cell-based, human; conditions: 1 uM-500 uM
Method: C1=1 uM, C2=10 uM, C3=50 uM, C4=100 uM, C5=150 uM, C6=250 uM, C7=300 uM, C8=400 uM, C9=500 uM.
as §4

Substance | calcium uptake [1] | paralysis [2] | resorptive activity on corning osteoassay surface (human osteoclasts) | bone resorption by osteoclasts / osteoclast activity (percentage resorption) (human osteoclasts) | osteoclast differentiation in vitro [3] | cell growth (U266 cells) | TRAP enzyme activity [4] | cell growth (KMM-1 cells)
Soricidin: fifty-four amino acid paralytic peptide isolated from the submaxilary saliva gland of the Northern Short-tailed Shrew (Blarina brevicauda) (DCSQDCAACSILARPAELNTETCILECEGKLSSNDTEGGLCKEFLHPSKVDLPR; UniProt P0C2P6 1-54, looked up) | inhibited calcium uptake | caused paralysis |  |  |  |  |  | 
KEFLHPSKVDLPR [SOR-C13, KEFLHPSKVDLPR] |  |  | significantly reduced their resorptive activity | inhibition of osteoclast activity; also recorded: dose-dependent decrease in bone resorption | inhibited osteoclast differentiation | dose-dependent inhibition of cell growth | decrease in TRAP enzyme activity relative to controls | dose-dependent inhibition of cell growth
EGKLSSNDTEGGLCKEFLHPSKVDLPR [SOR-C27, peptide corresponding to the C-terminal end of soricidin; TRPV6 peptide antagonist] |  |  | significantly reduced their resorptive activity | dose-dependent Inhibition of osteoclast activity; also recorded: dose-dependent decrease in bone resorption | inhibited osteoclast differentiation | dose-dependent inhibition of cell growth | decrease in TRAP enzyme activity relative to controls | dose-dependent inhibition of cell growth
